Laboratory results from US20230126992A1, “Antibacterial Antiviral Pharmaceutical Composition and Application Thereof” (priority 2020, published 2023).
“And” between values parts separate entries of the source, which are not always exact repeats. Equal entries are not always repeated. Structures can show the parent of a compound that is named as a salt. Where two headings read alike, the source gives them in different places.

Tests used:
SARS-CoV-2 [1] = assay: Test of direct killing of virus; format: cell-based
SARS-CoV-2 [2] = details: for Inhibition rate to SARS-CoV-2 induced cell death: drug 1 hour after infection
SARS-CoV-2 [3] = assay: Inhibition of Vero E6 cell death induced by SARS-CoV-2, simultaneous addition of drug and virus; details: for Inhibition rate to SARS-CoV-2 induced cell death: simultaneous addition
Vero E6 cells = assay: Toxicity test to Vero E6 cells (CCK8); details: 3 days
SARS-CoV-2 [4] = assay: microbe, parasite or virus in culture
[5] = tested on: tracheal excretion of phenol red of mice; assay: Tracheal excretion of phenol red in mice; details: dose 30 mg/kg intragastric, 7 days; 546 nm
[6] = tested on: asthma of guinea pigs induced by acetylcholine and histamine phosphate; assay: Asthmatic guinea pigs induced by acetylcholine combined with histamine phosphate (Example 3)
[7] = tested on: asthma of guinea pigs induced by acetylcholine and histamine phosphate; assay: Asthmatic guinea pigs induced by acetylcholine combined with histamine phosphate (Example 9)
[8] = tested on: LPS-induced fever in rats; assay: LPS induced rat fever model; details: dose 200 mg/kg
[9] = tested on: capillary discharge sputum volume in rats; assay: Capillary discharge sputum volume in rats (Example 9); details: dose 0.2 g/kg intragastric, 7 days
[10] = tested on: capillary discharge sputum volume in rats; assay: Capillary discharge sputum volume in rats (Example 3); details: dose 200 mg/kg intragastric, 7 days; 2 h collection
acute pharyngitis rats = assay: Acute pharyngitis model in rat, serum IL-6 and TNF-α by ELISA; details: dose 5 mg/kg, 3 days
influenza virus FM1 [11] = format: in vivo, ICR mice; details: dose 27.5 mg/kg
influenza virus FM1 [12] = format: in vivo, ICR mice; details: dose 27.5 mg/kg, 7 days
influenza virus FM1 [13] = format: in vivo, ICR mice
[14] = tested on: concentrated ammonia water induced cough in mice; assay: Concentrated ammonia water induced cough test in mice (Example 9, dropping pills); format: in vivo, ICR mice; details: dose 0.02 g/kg intragastric, 7 days
[15] = tested on: concentrated ammonia water induced cough in mice; assay: Concentrated ammonia water induced cough test in mice (Example 3); format: in vivo, ICR mice; details: dose 20 mg/kg intragastric, 7 d
[16] = addition of the drug after infection
[17] = concentration 0.064 μM, 0.064 µM
[18] = simultaneous addition of the drug and virus
[19] = dose 60 mg/kg intragastric, 7 d
[20] = dose 0.06 g/kg intragastric, 7 days
[21] = lung tissue homogenate, dose 27.5

OO [Example H2O2, H2O2]
Inhibition rate (killing effect) (SARS-CoV-2 [1]; 0.01% incubated with virus 0 min): 82.13 ± 8.64% and 92.94 ± 6.31%
Inhibition rate (killing effect) (SARS-CoV-2 [1]; 0.01% incubated with virus 5 min): 98.16 ± 18.42% and 99.25 ± 2.95%
Inhibition rate (killing effect) (SARS-CoV-2 [1]; 0.01% incubated with virus 10 min): 89.87 ± 7.26% and 98.25 ± 2.36%
Inhibition rate (killing effect) (SARS-CoV-2 [1]; 0.01% incubated with virus 30 min): 102.74 ± 8.56% and 102.50 ± 14.39%
Inhibition rate (killing effect) (SARS-CoV-2 [1]; 0.01% incubated with virus 60 min): 95.28 ± 10.93% and 101.35 ± 11.45%

CCC(CC)COC(=O)[C@H](C)N[P@](=O)(OC[C@H]1O[C@@](C#N)(c2ccc3c(N)ncnn23)[C@H](O)[C@@H]1O)Oc1ccccc1 [Remdesivir]
IC50 (SARS-CoV-2 [2]; [16]): 734 nM and 915 nM
TI (CC50/IC50) (SARS-CoV-2 [2]; [16]): > 242.42
Inhibition rate to SARS-CoV-2 induced cell death (SARS-CoV-2 [2]; [17]): 6.51 ± 7.08%
Inhibition rate to SARS-CoV-2 induced cell death (SARS-CoV-2 [2]; concentration 0.32 μM, 0.32 µM): 28.39 ± 11.56%
Inhibition rate to SARS-CoV-2 induced cell death (SARS-CoV-2 [2]; concentration 1.6 μM, 1.6 µM): 53.50 ± 3.37%
Inhibition rate to SARS-CoV-2 induced cell death (SARS-CoV-2 [2]; concentration 8 μM, 8 µM): 92.29 ± 6.68%
Inhibition rate to SARS-CoV-2 induced cell death (SARS-CoV-2 [2]; concentration 40 μM, 40 µM): 94.31 ± 5.01%
Inhibition rate to SARS-CoV-2 induced cell death (SARS-CoV-2 [2]; concentration 200 μM, 200 µM): 98.83 ± 2.97%
inhibition at 0.32 µM (SARS-CoV-2 [3]; Severe acute respiratory syndrome coronavirus 2, Vero C1008, read-out: Inhibition rate to SARS-CoV-2 induced cell death, simultaneous addition, concentration 0.32 μM): 21.3 ± 12.8%
inhibition at 1.6 µM (SARS-CoV-2 [3]; Severe acute respiratory syndrome coronavirus 2, Vero C1008, read-out: Inhibition rate to SARS-CoV-2 induced cell death, simultaneous addition, concentration 1.6 μM): 56 ± 7.66%
inhibition at 8 µM (SARS-CoV-2 [3]; Severe acute respiratory syndrome coronavirus 2, Vero C1008, read-out: Inhibition rate to SARS-CoV-2 induced cell death, simultaneous addition, concentration 8 μM): 89.2 ± 1.29%
inhibition at 40 µM (SARS-CoV-2 [3]; Severe acute respiratory syndrome coronavirus 2, Vero C1008, read-out: Inhibition rate to SARS-CoV-2 induced cell death, simultaneous addition, concentration 40 μM): 95.8 ± 8.77%
inhibition at 200 µM (SARS-CoV-2 [3]; Severe acute respiratory syndrome coronavirus 2, Vero C1008, read-out: Inhibition rate to SARS-CoV-2 induced cell death, simultaneous addition, concentration 200 μM): 98.9 ± 3.47%
IC50 (SARS-CoV-2 [3]; Severe acute respiratory syndrome coronavirus 2, Vero C1008, simultaneous addition of the drug and virus): 1120 ± 52 nM
IC50 (SARS-CoV-2 [3]; [18]): 1160 nM and 1080 nM
TI (CC50/IC50) (SARS-CoV-2 [3]; [18]): > 178.89
Inhibition rate to SARS-CoV-2 induced cell death (SARS-CoV-2 [3]; [17]): 2.80 ± 2.11% and 9.23 ± 5.11%
Inhibition rate to SARS-CoV-2 induced cell death (SARS-CoV-2 [3]; concentration 0.32 μM, 0.32 µM): 26.39 ± 6.35%
Inhibition rate to SARS-CoV-2 induced cell death (SARS-CoV-2 [3]; concentration 1.6 μM, 1.6 µM): 59.24 ± 13.49%
Inhibition rate to SARS-CoV-2 induced cell death (SARS-CoV-2 [3]; concentration 8 μM, 8 µM): 78.78 ± 9.66%
Inhibition rate to SARS-CoV-2 induced cell death (SARS-CoV-2 [3]; concentration 40 μM, 40 µM): 91.04 ± 3.06%
Inhibition rate to SARS-CoV-2 induced cell death (SARS-CoV-2 [3]; concentration 200 μM, 200 µM): 94.82 ± 0.89%
Cell survival rate (Vero E6 cells; concentration 0.064 μM): 101.58 ± 3.33% and 95.44 ± 10.01%
Cell survival rate (Vero E6 cells; concentration 0.32 μM): 99.55 ± 10.53% and 93.59 ± 6.96%
Cell survival rate (Vero E6 cells; concentration 1.6 μM): 91.37 ± 10.73% and 98.11 ± 7.16%
Cell survival rate (Vero E6 cells; concentration 8 μM): 87.35 ± 4.25% and 90.08 ± 1.88%
Cell survival rate (Vero E6 cells; concentration 40 μM): 76.24 ± 8.59% and 77.22 ± 11.23%
Cell survival rate (Vero E6 cells; concentration 200 μM): 53.84 ± 3.48% and 71.58 ± 3.12%
inhibition at 0.064 µM (SARS-CoV-2 [4]; Severe acute respiratory syndrome coronavirus 2, Vero C1008, 1 h, read-out: Inhibition rate to SARS-CoV-2 induced cell death, drug 1 hour after infection, concentration 0.064 μM): 7.48 ± 11.8%
inhibition at 0.32 µM (SARS-CoV-2 [4]; Severe acute respiratory syndrome coronavirus 2, Vero C1008, 1 h, read-out: Inhibition rate to SARS-CoV-2 induced cell death, drug 1 hour after infection, concentration 0.32 μM): 46.3 ± 15.2%
inhibition at 1.6 µM (SARS-CoV-2 [4]; Severe acute respiratory syndrome coronavirus 2, Vero C1008, 1 h, read-out: Inhibition rate to SARS-CoV-2 induced cell death, drug 1 hour after infection, concentration 1.6 μM): 61.5 ± 6.96%
inhibition at 8 µM (SARS-CoV-2 [4]; Severe acute respiratory syndrome coronavirus 2, Vero C1008, 1 h, read-out: Inhibition rate to SARS-CoV-2 induced cell death, drug 1 hour after infection, concentration 8 μM): 73.4 ± 3.67%
inhibition at 40 µM (SARS-CoV-2 [4]; Severe acute respiratory syndrome coronavirus 2, Vero C1008, 1 h, read-out: Inhibition rate to SARS-CoV-2 induced cell death, drug 1 hour after infection, concentration 40 μM): 91.2 ± 9.91%
inhibition at 200 µM (SARS-CoV-2 [4]; Severe acute respiratory syndrome coronavirus 2, Vero C1008, 1 h, read-out: Inhibition rate to SARS-CoV-2 induced cell death, drug 1 hour after infection, concentration 200 μM): 100 ± 9.98%
IC50 (SARS-CoV-2 [4]; Severe acute respiratory syndrome coronavirus 2, Vero C1008, addition of the drug after infection): 825 ± 128 nM

Nc1c(Br)cc(Br)cc1CN[C@H]1CC[C@H](O)CC1 [ambroxol hydrochloride]
Tracheal excretion amount of phenol red [5]: 0.566 ± 0.201 OD value

Cn1c(=O)c2[nH]cnc2n(C)c1=O [aminophylline]
asthma incubation period, Pre-administration ([6]; 60 mg/kg group, before administration (baseline)): 33.1 ± 9.2 s
asthma incubation period, Post-administration [6, 19]: 123.4 ± 50.3 s
asthma incubation period, extension value (post-pre) [6, 19]: 90.3 ± 51.1 s
Asthma incubation period, pre-administration ([7]; 0.06 g/kg group, before administration (baseline)): 36.9 ± 5.8 s
asthma incubation period, Post-administration [7, 20]: 95.3 ± 37.6 s
asthma incubation period, extension value (post-pre) [7, 20]: 58.4 ± 32.1 s

CC(=O)Oc1ccccc1C(=O)O [aspirin]
Temperature difference (ΔT) ([8]; 1 h after LPS): 0.10 ± 0.34 °C
Temperature difference (ΔT) ([8]; 2 h after LPS): 0.43 ± 0.29 °C
Temperature difference (ΔT) ([8]; 3 h after LPS): 0.42 ± 0.24 °C
Temperature difference (ΔT) ([8]; 4 h after LPS): 0.46 ± 0.34 °C
Temperature difference (ΔT) ([8]; 5 h after LPS): 0.79 ± 0.17 °C
Temperature difference (ΔT) ([8]; 6 h after LPS): 0.88 ± 0.18 °C
Temperature difference (ΔT) ([8]; 7 h after LPS): 0.53 ± 0.24 °C

N[C@@H](CSCC(=O)O)C(=O)O [carbocisteine]
Sputum excretion volume [9]: 21.56 ± 4.41 cm
Sputum excretion volume [10]: 18.11 ± 4.32 cm

C[C@@H]1C[C@H]2[C@@H]3CCC4=CC(=O)C=C[C@]4(C)[C@@]3(F)[C@@H](O)C[C@]2(C)[C@@]1(O)C(=O)CO [dexamethasone]
IL-6 (acute pharyngitis rats): 146.3 ± 10.4 pg/mL
TNF-α (acute pharyngitis rats): 218.2 ± 5.8 pg/mL

CCOC(=O)C1=C[C@@H](OC(CC)CC)[C@H](NC(C)=O)[C@@H](N)C1 [oseltamivir]
Lung index (influenza virus FM1 [11]): 0.89 ± 0.17
Lung index (influenza virus FM1 [12]): 0.95 ± 0.13
Lung index inhibition rate (influenza virus FM1 [12]): 41.0%
Lung index (influenza virus FM1 [13]; dose 27.5 mg/kg intraperitoneal, 7 days): 0.89 ± 0.20
IL-8 (influenza virus FM1 [13]; [21]): 80.3 ± 15.3 pg/mL
TNF-α (influenza virus FM1 [13]; [21]): 65.2 ± 17.5 pg/mL

CCN(CC)CCOCCOC(=O)C1(c2ccccc2)CCCC1 [pentoxyverine citrate]
Cough incubation period [14]: 23.3 ± 4.2 s
Frequency of cough [14]: 40.6 ± 12.5 time/2 min
Cough incubation period [15]: 26.3 ± 3.3 s
Frequency of cough [15]: 55.8 ± 14.7 time/2 min
